Data reported in PMC10165273, “Itch receptor MRGPRX4 interacts with the receptor activity–modifying proteins” (The Journal of Biological Chemistry, 2023).
Values joined by “and” are separate entries in the source; they are usually repeats but may differ in a detail not shown here. Identical values can stand only once. Like-named read-outs stand apart in the source and are kept apart here.

How the values were obtained:
MRGPRX4 + RAMP3 = molecular target: T1, MRGPRX4 + RAMP3 (Homo sapiens, UniProt Q96LA9); experiment: IP1 accumulation, MRGPRX4 coexpressed with RAMP3; assay type: cell-based; set-up: key to IP1 Basal / response to agonist, X4:ramp3.I:0.25 / response to agonist, X4:ramp3.I:0.5 / response to agonist, X4:ramp3.I:1: % IP1; unstimulated mock = 0%, fully stimulated MRGPRX4 = 100%; conditions: for EC50: read-out: IP1 EC50; for Emax: read-out: IP1 Emax; for IP1 accumulation (normalized): MRGPRX4+RAMP3 1pg 1:1, Supplementary Figure 5f, 5g
T1 construct: expressed in transfected cells; host or cells: HEK293T
Experimental: HEK293T cells were transfected with 1 pg/cell of MRGPRX4 DNA, and the amount of DNA was kept constant at 2 pg/cell with pcDNA3.1(+) empty vector, unless otherwise specified. Twenty four hours after transfection, IP1 assay was performed as previously described ([51]). When applicable, cells were treated with 1 μM YM254890 (YM) or different concentrations of U73122 for 1 h prior to addition of agonist or buffer. After incubation for 2 h, HTRF reagents and IP1 calibration standards were added and incubated for 2 h in the dark at room temperature. Time-resolved fluorescence signals were read on the BioTek Synergy NEO-TRF Hybrid multi-mode reader (BioTek Instruments). All data were carried out in three independent experiments with three technical replicate each.
For RAMP DNA titration assay, HEK293T cells were cotransfected with a constant amount of 1 pg/cell of FLAG-MRGPRX4-GFP10-1D4 to which a serial dilution of 1, 0.75, 0.5, 0.25, or 0 pg/cell of each HA-RAMP-OLLAS was added. For a homogenous transfection of MRGPRX4, a master mix of MRGPRX4 DNA was made prior to addition of the RAMP DNA. […]
Data reduction, standard calibration, and transformation of HTRF data were performed as previously described ([51]). Normalized IP1 values were calculated relative to the unstimulated mock-transfected cells (set to 0%) and fully stimulated MRGPRX4 (alone if applicable) (set to 100%).

[1] = tested on: mock-transfected HEK293T cells; experiment: IP1 accumulation, mock-transfected cells; assay type: cell-based, human; set-up: IP1 Basal / IP1 span / IP1 Emax / IP1 accumulation, dose-response (Figure 1a) / IP1 accumulation with YM (Figure 1c) / IP1 accumulation: unit not given here; conditions: for IP1 accumulation, dose-response (Figure 1a): pcDNA (mock), individual replicates; for IP1 accumulation: mock, Fig S3a-c
[2] = MRGPRX4 + RAMP3 0.25 pg (Fig. S3), normalized per agonist
[3] = MRGPRX4 + RAMP3 0.5 pg (Fig. S3), normalized per agonist
[4] = MRGPRX4 + RAMP3 1 pg (Fig. S3), normalized per agonist
[5] = MRGPRX4 + RAMP3 2 pg (Fig. S3), normalized per agonist
[6] = Tet-On MRGPRX4:RAMP3 Ratio 1:0.5 (Fig. S5F)
[7] = Tet-On MRGPRX4:RAMP3 Ratio 1:0.75 (Fig. S5F)
[8] = Tet-On MRGPRX4:RAMP3 Ratio 1:1 (Fig. S5F)

T1 sequence (Q96LA9 whole entry): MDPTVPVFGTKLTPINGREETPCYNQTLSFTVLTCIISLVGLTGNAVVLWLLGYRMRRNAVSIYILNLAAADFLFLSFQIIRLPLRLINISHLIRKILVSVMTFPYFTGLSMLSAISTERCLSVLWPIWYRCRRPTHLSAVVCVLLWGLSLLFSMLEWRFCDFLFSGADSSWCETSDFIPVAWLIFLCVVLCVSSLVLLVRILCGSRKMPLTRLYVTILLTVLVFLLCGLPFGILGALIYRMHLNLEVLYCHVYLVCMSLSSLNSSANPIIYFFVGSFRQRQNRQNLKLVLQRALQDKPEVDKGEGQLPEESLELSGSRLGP

CC(C)[C@H]1CC[C@H](C(=O)N[C@H](Cc2ccccc2)C(=O)O)CC1 [Nateglinide]
response to agonist, X4:ramp3.I:0.5 (MRGPRX4 + RAMP3; Figure 4c-f, agonist 100µM, X4:ramp3 1:0.5, MRGPRX4 = 100): 74.9289 and 71.6542 | response to agonist, X4:ramp3.I:1 (MRGPRX4 + RAMP3; Figure 4c-f, agonist 100µM, X4:ramp3 1:1, MRGPRX4 = 100): 57.9146 and 58.6922 | IP1 Basal (MRGPRX4 + RAMP3; [2]): 18.35 | IP1 span (top minus basal of the concentration-response fit) (MRGPRX4 + RAMP3; [2]): 72% | EC50 (MRGPRX4 + RAMP3; [2]): 7.44 µM | Emax (MRGPRX4 + RAMP3; [2]): 90.3% | IP1 Basal (MRGPRX4 + RAMP3; [3]): 17.78 | IP1 span (top minus basal of the concentration-response fit) (MRGPRX4 + RAMP3; [3]): 70.5% | EC50 (MRGPRX4 + RAMP3; [3]): 10.6 µM | Emax (MRGPRX4 + RAMP3; [3]): 88.3% | IP1 Basal (MRGPRX4 + RAMP3; [4]): 13.65 | IP1 span (top minus basal of the concentration-response fit) (MRGPRX4 + RAMP3; [4]): 76.8% | EC50 (MRGPRX4 + RAMP3; [4]): 12 µM | Emax (MRGPRX4 + RAMP3; [4]): 90.4% | IP1 Basal (MRGPRX4 + RAMP3; [5]): 11.70 | IP1 span (top minus basal of the concentration-response fit) (MRGPRX4 + RAMP3; [5]): 79.7% | EC50 (MRGPRX4 + RAMP3; [5]): 14.5 µM | Emax (MRGPRX4 + RAMP3; [5]): 91.3% | IP1 Basal (MRGPRX4 + RAMP3; [6]): 10.08 | IP1 span (top minus basal of the concentration-response fit) (MRGPRX4 + RAMP3; [6]): 83.3% | EC50 (MRGPRX4 + RAMP3; [6]): 7.17 µM | Emax (MRGPRX4 + RAMP3; [6]): 93.4% | IP1 Basal (MRGPRX4 + RAMP3; [7]): 8.392 | IP1 span (top minus basal of the concentration-response fit) (MRGPRX4 + RAMP3; [7]): 72.2% | EC50 (MRGPRX4 + RAMP3; [7]): 7.11 µM | Emax (MRGPRX4 + RAMP3; [7]): 80.5% | IP1 Basal (MRGPRX4 + RAMP3; [8]): 9.885 | IP1 span (top minus basal of the concentration-response fit) (MRGPRX4 + RAMP3; [8]): 71.3% | EC50 (MRGPRX4 + RAMP3; [8]): 8.79 µM | Emax (MRGPRX4 + RAMP3; [8]): 81.2% | IP1 accumulation (normalized) (MRGPRX4 + RAMP3; log [nateglinide] (M) -4): 57.5355 and 90.9736 and 62.9483 | IP1 accumulation (normalized) (MRGPRX4 + RAMP3; log [nateglinide] (M) -4.69897): 50.3774 and 62.0079 and 49.4001 | IP1 accumulation (normalized) (MRGPRX4 + RAMP3; log [nateglinide] (M) -5.39794): 23.5136 and 36.2384 and 24.8216 | IP1 accumulation (normalized) (MRGPRX4 + RAMP3; log [nateglinide] (M) -6.09691): 12.0843 and 16.5706 and 10.8044 | IP1 accumulation (normalized) (MRGPRX4 + RAMP3; log [nateglinide] (M) -7.49485): 6.988 and 11.3646 and 7.305 | IP1 accumulation, dose-response (Figure 1a) ([1]; log [agonist] (M) -4): 0.2271 and 0.3078 and 0.4629 and -0.5571 and 0.3306 and 0.0456 and 0.8656 and -0.04322 and 0.1347 and -0.9843 and -0.02794 and -0.8867 | IP1 accumulation, dose-response (Figure 1a) ([1]; log [agonist] (M) -4.95424): 0.4814 and 0.1593 and 0.9731 and 0.2847 and 0.3905 and 0.01267 and 0.9879 and -0.1469 and 0.1915 and -0.5702 and -0.3086 and -0.9418 | IP1 accumulation, dose-response (Figure 1a) ([1]; log [agonist] (M) -5.90849): 0.6831 and 0.2899 and 0.8301 and 0.7307 and 0.1868 and 0.3562 and 0.4874 and 0.05414 and 0.7331 and -0.7448 and -0.08445 and -0.6788 | IP1 accumulation, dose-response (Figure 1a) ([1]; log [agonist] (M) -6.86273): 1.046 and 0.7412 and 1.424 and 1.025 and 0.6018 and 0.6703 and 1.266 and 0.6126 and 1.453 and 0.03754 and 0.2747 and 0.1665 | IP1 accumulation ([1]; log [Nateglinide] (M) -4): 1.284 and 1.14 | IP1 accumulation ([1]; log [Nateglinide] (M) -4.69897): 0.9537 and 0.9999 and 1.07 | normalized IP1 accumulation ([1]; pcDNA, log [agonist] (M) -5.39794): 0.47 and 0.5436 and 0.4562
